The target in series [1] is T1, liver ALDH2 (Rattus norvegicus, UniProt P11884).
T1 construct: from tissue; host or cells: liver (left lateral lobe) lysate of Sprague Dawley (CD-IGS) rats
T1 sequence (P11884 20-519): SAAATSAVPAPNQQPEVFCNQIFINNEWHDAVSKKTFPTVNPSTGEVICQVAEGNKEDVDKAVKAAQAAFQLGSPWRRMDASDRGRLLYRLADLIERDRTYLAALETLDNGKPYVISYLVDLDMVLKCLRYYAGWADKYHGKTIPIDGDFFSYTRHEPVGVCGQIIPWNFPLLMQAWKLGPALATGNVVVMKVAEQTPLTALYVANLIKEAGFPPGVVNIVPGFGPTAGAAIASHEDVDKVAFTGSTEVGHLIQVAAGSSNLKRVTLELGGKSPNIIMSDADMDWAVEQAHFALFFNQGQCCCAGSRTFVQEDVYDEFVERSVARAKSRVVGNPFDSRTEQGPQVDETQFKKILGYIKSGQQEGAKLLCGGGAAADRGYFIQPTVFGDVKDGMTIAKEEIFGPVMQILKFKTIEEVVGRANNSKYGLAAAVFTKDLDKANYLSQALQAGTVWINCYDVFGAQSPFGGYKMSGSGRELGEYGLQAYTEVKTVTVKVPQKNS
Put plainly: In vivo ALDH2 enzymatic activity assay with disulfiram comparison, ethanol challenge (Example 3). To be noted: for statistical significance of ALDH2 inhibitions: 2 mg/kg, 6.5 mg/kg and 12 mg/kg IV QD; for dose-activity response of ALDH2 inhibition: 2, 6.5, 12 mg/kg IV QD 3 days; for onset of inhibition of ALDH2 activity: after only 3-day administration; for ALDH2 inhibition versus Disulfiram at 3.57 mg/kg/day PO: after three days at 2 mg/kg/day IV. Also on record: species or system rats (Sprague Dawley). As to the method:
Eighty-eight (88) male Sprague Dawley (CD-IGS) were obtained from Charles River Laboratories. All animals were housed under controlled conditions of temperature (72±8° F.), relative humidity (30-70%) and a 12-hour light-dark cycle (light from 6:00 AM to 6:00 PM). All animals were allowed free access to standard rodent chow (PicoLab Rodent Diet 20) and water (reverse osmosis, 0.2 μM filtered). Animals had at least a 3-day acclimation period prior to study.
30 mL disulfiram formulation were prepared. 64.2 mg of disulfiram was completely dissolved in 6 mL of DMSO to render a mixture. 0.3 mL of Tween 80 was then slowly added to the mixture. To the resulting mixture, 23.7 mL of PBS (1×, pH 5.0) was slowly added while stirring to render a dosing formulation. The dosing formulation was a fine suspension at concentration of 2.14 mg/mL. The final concentrations for DMSO and […] were 20% v/v and 1% v/v, respectively.
The dosing formulations of Example 1-4A, Example 1-4B3, and Example 1-2 and difulfiram were prepared with PBS (pH 7.0) by thoroughly mixing via vortexing and sonication.
Ethanol challenge study design and dosing groups of Example 1-4A, Example 1-48, and Example 1-2 and difulfiram are as shown in Table 3.
Animals in Group 1 was administered vehicle (PBS) via tail vein injection, once daily for 3 days. Animals in Group 2 was administered vehicle (PBS) disulfiram at 3.57 mg/kg via oral gavage (PO) once daily for 3 days. Animals in Groups 3-11 were respectively administered Example 1-4A at 2, 6.5, and 12 mg/kg, Example 1-4B at 2, 6.5, and 12 mg/kg, or Example 1-2 at 2, 6.5, and 12 mg/kg via tail vein injection, once daily for 3 days.
Dosing volume (1 or 1.67 mL/kg) was calculated based on the individual body weight obtained prior to the first dose of test article.
Ethanol (200PRF or 100% pure, non-denatured and no additives) was obtained from Fisher Scientific. Ethanol dosing solution (20% v/v in saline) was prepared by mixing one (1) part of ethanol and four (4) part of saline (0.9% NaCl) thoroughly to create a uniform solution prior to administration. Animals was administered 20% ethanol at 1 g/kg (IP) 8 hours following the third dose of test article. Thirty (30) minutes following ethanol challenge, animals were euthanized with CO2. About 2 mL of whole blood was rapidly collected via vena cava for generation of plasma samples. Blood samples were placed into K2 EDTA tubes and kept on wet ice prior to processing. Liver lysate generation, protein concentration determination, and ALDH2 activity assay were performed by Confluence Discovery Technologies (CDT). Protein concentrations were determined using the Pierce BCA Protein Assay Kit. ALDH2 Activity Assay using the Abcam assay kit #ab115348.

Series [2] addresses T1, liver ALDH2. Put plainly: In vivo ALDH2 enzymatic activity assay, ethanol challenge (Example 2). Also on record: species or system rats (Sprague Dawley). As to the method:
Sixty (60) male and sixty (60) female Sprague Dawley (CD-IGS) were obtained from Charles River Laboratories. All animals were housed under controlled conditions of temperature (72±8° F.), relative humidity (30-70%) and a 12-hour light-dark cycle (light from 6:00 AM to 6:00 PM). All animals were allowed free access to standard rodent chow (PicoLab Rodent Diet 20) and water (reverse osmosis, 0.2 μM filtered). Animals had at least a 3-day acclimation period prior to study.
Example 1-2 was synthesized by PharmAgra Labs, Lot #489PAL97; and stored at 4° C. and protected from light upon receipt. Example 1-2 dosing solutions were prepared by dissolving in PBS (pH 7.0) and thoroughly mixing via vortexing and sonication.
Example 1-15 was synthesized by PharmAgra Labs, Lot #505PAL17; and stored at 4° C. and protected from light upon receipt. Example 1-15 dosing solution was prepared by dissolving in PBS (pH 7.0) and thoroughly mixing via vortexing and sonication. The dosing formulation at concentration of 20 mg/mL was a clear solution.
Body weights of the animals in Groups 1-4 were obtained on Day 1. Body weights of the animals in Groups 5-8 were obtained on Days 1-3 respectively. Body weights of the animals in Groups 9-13 were obtained on Days 1, 4 and 5 respectively.
(§1) Animals were respectively administered vehicle and Example 1-2 at dosages of 2, 6.5 or 12 mg/kg via tail vein injection, once daily for 1 day (Groups 1-4), once daily for 3 days (Groups 5-8), or once daily for 5 days (Groups 9-12). For Group 13, animals were administered 20 mg/kg (on Day 1) or 12 mg/kg (on Days 2-5) dose via tail vein injection, once daily for 5 days. In some studies, the animals were administered a compound described herein for 10 days. In some studies, the animals were administered a compound described herein for 12 days. In some studies, the study was carried out with administered the compounds described herein including Example 1-2 racemate, Example 1-2A, Example 1-21B, Example 1-11 racemate, Example 1-11A, and/or Example 1-11B at a dosage of about 0.5, 1, 2, 4, and 8 mg.
Dosing volume (1 or 0.6 mL/kg) was calculated based on the body weight of the individual animal obtained on Day 1 (all groups), Days 2-3 (Groups 5-8), and Days 4-5 (Groups 9-13).
Ethanol (200PRF or 100% pure, non-denatured and no additives) was obtained from Fisher Scientific. The ethanol dosing solution was prepared fresh for each use. One (1) mL of ethanol was added to four (4) mL of saline (0.9% NaCl) in a glass vial and mixed by vortexing to create a uniform solution prior to administration. Animals were administered 20% ethanol at 1 g/kg (IP) 8 hours following the last dose of test article. Thirty (30) minutes following ethanol challenge, animals were euthanized with CO2. About 7 mL of whole blood was rapidly collected via vena cava for generation of serum samples for assays (Acetaldehyde assay by GPL and ALDH2 activity and protein assay by Eurofins). Blood samples were placed into serum separator tubes and maintained at room temperature for at least 30 minutes to allow clot formation prior to processing.
The left lateral lobe of liver was harvested and rinsed in cold saline to render a sample that was snap frozen in liquid nitrogen. Samples were stored at −80° C. until shipment. […]
The obtained serum samples as described herein were measured in singlicate for Acetaldehyde concentration using the Acetaldehyde Colorimetric Assay Kit (BioAssay Systems, #EACT-100), in accordance with manufacturer's instructions. […]

Series [3] addresses T1, liver ALDH2. The series can be described thus: In vivo ALDH2 enzymatic activity assay with disulfiram comparison, ethanol challenge (Example 3). Details: species or system rats (Sprague Dawley). Conditions: 2 mg/kg, 6.5 mg/kg and 12 mg/kg IV QD; printed 'after 5 days'.
In series [4] the target is T1, liver ALDH2. Put plainly: 10-day rat Pharmacology study, liver ALDH2 activity following ethanol challenge. The class given is in vivo. As for the experimental part:
as §1
Ethanol (200PRF or 100% pure, non-denatured and no additives) was obtained from Fisher Scientific. The ethanol dosing solution was prepared fresh for each use. One (1) mL of ethanol was added to four (4) mL of saline (0.9% NaCl) in a glass vial and mixed by vortexing to create a uniform solution prior to administration. Animals were administered 20% ethanol at 1 g/kg (IP) 8 hours following the last dose of test article. Thirty (30) minutes following ethanol challenge, animals were euthanized with CO2. […]

A short description of series [5]: Solubility in CHCl3, DCM and DMSO by SFC/UV. To be noted: organic solvent or mixture, thermodynamic from solid, room temperature. It is filed as physicochemical. As to the method:
The solubility in chloroform (CHCl3), dichloromethane (DCM) and dimethyl sulfoxide (DMSO) was determined at room temperature up to 50 mg/mL by measuring the concentrations of the solutions using SFC/UV. […] 200 mg Example 1-11B was weighed individually into three separate vials. 4 mL DMSO, 6 mL CHCl3 and 6 mL DCM were pipetted into the three vials containing Example 1-11B. The solutions were mixed and sonicated for 10 minutes. The DMSO solution was clear, and an aliquot was taken and diluted 100 times using MeOH before being subjected to SFC analysis. The saturated CHCl3 and DCM solutions were centrifuged, and the clear solution was diluted 100 times using MeOH before being subjected to SFC analysis:
Solubility measurement of up to 50 mg/mL in DMSO, CHCl3 and DCM was requested. […] At 50 mg/mL, Example 1-11B was not completely dissolved in CHCl3 or DCM solutions. After mixing and sonication, a clear aliquot of each solution was taken, and the concentrations of Example 1-11B in CHCl3 and DCM were measured by SFC/UV using the DMSO solution as a reference.

For orientation: solubility means the concentration that dissolves in the medium under given conditions.

In brackets after ≈: the same amount, converted by molar mass. Read-outs that look alike come from different tables or passages of the source.

Take `CCN(CC)C(=O)[S+](C)[O-]` (racemic) [Example 1-2, N,N-diethyl-1-(methylsulfinyl)methanamide]: on liver ALDH2 [1], the “statistical significance of ALDH2 inhibitions” value is recorded as “statistically significant”, the “dose-activity response of ALDH2 inhibition” value is “A dose-activity response was observed”, the “onset of inhibition of ALDH2 activity” value is “fast activity onset” and the “ALDH2 inhibition versus Disulfiram at 3.57 mg/kg/day PO” value is “greater inhibition”. Moreover, the “ALDH2 inhibition after one (1) day administration” value on liver ALDH2 [2] (6.5 mg/kg and 12 mg/kg IV, 1 day) is reported as “statistically significant ALDH2 inhibitions were observed”. The “dose response and treatment-duration response in inhibiting ALDH2 activities” value at liver ALDH2 [2] (2, 6.5 or 12 mg/kg tail vein injection QD for 1, 3 or 5 days, ethanol 1 g/kg IP 8 h after last dose) was “A dose response and a treatment-duration response were observed”. For the same compound, the “ALDH2 inhibition, treatment for 3 and 5 days” value at liver ALDH2 [2] (all doses (2, 6.5, 12 mg/kg) IV QD for 3 and 5 days) is given as “statistically significant ALDH2 inhibitions at all doses”. For the same compound, the “inhibition of liver ALDH2 activity (FIGS. 2 and 3)” value against liver ALDH2 [2] (dosages of 2 mg/kg, 6.5 mg/kg and 12 mg/kg IV QD) is reported as “statistically significant effectiveness in inhibiting liver ALDH2 activity”. Also, on liver ALDH2 [3], the “ALDH2 inhibition (FIG. 7)” value is recorded as “showed ALDH2 inhibitions”.
As to `C[S+]([O-])C(=O)N1CCC(O)CC1` (racemic) [Example 1-11, (4-hydroxypiperidin-1-yl)(methylsulfinyl)methanone], the “ALDH2 inhibition versus pure enantiomer Example 1-11A (FIG. 12)” value at liver ALDH2 [4] (10 day administration at 2, 4 and 8 mg/kg, material with 66 wt % of Example 1-11B) is given as “greater ALDH2 inhibition than the pure enantiomer Example 1-11A”.
Turning to `CCN(CC)C(=O)[S@+](C)[O-]` (single isomer, unassigned; peak-1) [Example 1-2A, (S )-N, N-diethyl-1 - (methylsulfinyl)methanamide (Peak-1)], the “ALDH2 inhibition, enantiomer versus other enantiomer (FIG. 12)” value on liver ALDH2 [4] (10-day administration at 0.5, 1 and 2 mg/kg) is recorded as “greater ALDH2 inhibition compared the other enantiomer Example 1-2B”.
With `CCN(CC)C(=O)[S+]([O-])CC1CC1` (single isomer, unassigned; peak-2) [Example 1-4B, 1-((cyclopropylmethyl)sulfinyl)-N,N-diethylmethanamide (Peak-2)], at liver ALDH2 [1], the “statistical significance of ALDH2 inhibitions” value is given as “statistically significant”, the “dose-activity response of ALDH2 inhibition” value is “A dose-activity response was observed”, the “onset of inhibition of ALDH2 activity” value is given as “fast activity onset” and the “ALDH2 inhibition versus Disulfiram at 3.57 mg/kg/day PO” value was “greater inhibition”. On liver ALDH2 [3], the “ALDH2 inhibition (FIG. 7)” value is “showed ALDH2 inhibitions”.
Regarding `C[S@+]([O-])C(=O)N1CCC(O)CC1` [Example 1-11B, (S)-(4-hydroxypiperidin-1-yl)(methylsulfinyl)methanone], the solubility at 10 min in series [5] (chloroform (CHCl3), SFC/UV, read-out: solubility in CHCl3) is 12.4 mg/mL (≈ 64.8 mM); in series [5] (dichloromethane (DCM), SFC/UV, read-out: solubility in DCM), 12.3 mg/mL (≈ 64.3 mM); in series [5] (dimethyl sulfoxide (DMSO), tested up to 50 mg/mL, read-out: solubility in DMSO), more than 50 mg/mL.

The values are drawn from US11649208B2, “Compounds and methods for treating alcohol disorder” (SOPHROSYNE PHARMACEUTICALS LIMITED, priority 2021, dated 2023).
